A value given as a limit tells only on which side of the number the result lay.

The target in the first experiment is T1, human PAH with the R408W mutation (Homo sapiens, UniProt P00439, R408W).
T1 construct: expressed in transfected cells
T1 sequence (P00439 1-452 R408W): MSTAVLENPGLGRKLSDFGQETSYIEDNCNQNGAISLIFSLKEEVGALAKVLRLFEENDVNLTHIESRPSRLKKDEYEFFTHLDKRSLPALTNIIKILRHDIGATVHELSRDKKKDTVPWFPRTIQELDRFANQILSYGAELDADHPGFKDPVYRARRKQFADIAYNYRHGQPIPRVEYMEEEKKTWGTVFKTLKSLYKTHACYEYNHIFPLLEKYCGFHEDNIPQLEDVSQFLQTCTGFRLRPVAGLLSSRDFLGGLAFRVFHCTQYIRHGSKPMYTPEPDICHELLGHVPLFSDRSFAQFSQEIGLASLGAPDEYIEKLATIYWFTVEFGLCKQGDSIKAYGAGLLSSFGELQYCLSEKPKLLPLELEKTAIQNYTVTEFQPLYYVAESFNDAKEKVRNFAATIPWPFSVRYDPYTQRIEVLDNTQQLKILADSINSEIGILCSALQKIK
As to the kind of experiment: Cell Based Phenylalanine Flux Assay.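 Further: after compound treatment, cells received sepiapterin plus isotope-labelled Phenylalanine for 4 hours, then labelled Tyrosine in the medium was quantified, 10-point 2-fold dilution series run in duplicate.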 As to conditions: A375 cells expressing R408W PAH; 24 hrs with compound, then 20 µM sepiapterin and 800 µM 13C9,15N-Phenylalanine for 4 hours; 13C-Tyrosine by LC-MS; average where tested multiple times; read-out: AC50.
As for `Cc1ccc2c(C(=O)N3CCc4[nH]cnc4C3c3cc4cccc(C(F)(F)F)n4n3)cnn2c1` (centres unmarked), the AC50 was in the range of 1 to 5 µM.
In the case of `CN(C)Cc1ccc2c(C(=O)N3CCc4[nH]cnc4C3c3cc4ccccn4n3)cnn2c1` (single isomer, unassigned), the AC50 was 1 to 5 µM.
Consider `Cc1cccn2nc(C3c4nc[nH]c4CCN3C(=O)c3oc(-c4ccn(C)n4)nc3C(F)F)cc12` (centres unmarked), for which the half-maximal activity concentration (AC50) is 1 to 5 µM.
The same measure, in the same setting: for `Cc1cccn2nc(C3c4nc[nH]c4CCN3c3nnc(-c4ccncn4)o3)cc12` (centres unmarked) the value was > 5 µM; for `Cc1cccc2cc(C3c4nc[nH]c4CCN3C(=O)c3nnc(C4CC(F)(F)C4)o3)nn12` (centres unmarked), 1 to 5 µM; for `O=C(c1ocnc1C1CC1)N1CCc2[nH]cnc2[C@@H]1c1cc2cccc(C(F)(F)F)n2n1` (single isomer, unassigned), > 5 µM.
On to `Cc1cccc2cc(C3c4nc[nH]c4CCN3C(=O)c3nnc(-c4cncn4C)o3)nn12` (centres unmarked), for which the half-maximal activity concentration (AC50) was 1 to 5 µM.
For `Cc1nnc(N2CCc3[nH]cnc3C2c2cc3c(C(F)(F)F)cccn3n2)o1` (centres unmarked), the AC50 lay in the range of 1 to 5 µM.
For the compound `CC1(c2nnc(N3CCc4[nH]cnc4C3c3cc4c(C(F)F)cccn4n3)o2)CC1` (centres unmarked), the AC50 lay within 1 to 5 µM.

The experiment is the same for the next values; noted with them: A375 cells expressing human PAH R408W; 24 hrs compound incubation; 13C-Tyrosine by LC-MS; average where tested multiple times; read-out: AC50.
With `CC(C)(C)c1ncc(C(=O)N2CCc3[nH]cnc3[C@H]2c2cc3c(C(F)F)cccn3n2)o1` [Example 2104, (S)-(2-(tert-butyl)oxazol-5-yl)(4-(4-(difluoromethyl)pyrazolo[1,5-a]pyridin-2-yl)-1,4,6,7-tetrahydro-5H-imidazo[4,5-c]pyridin-5-yl)methanone], the AC50 was < 0.5 µM.
On the same count and under the same terms, for `O=C(c1cnc(-c2ccccn2)o1)N1CCc2[nH]cnc2[C@@H]1c1cc2c(F)cccn2n1` [Example 2033, (R)-(4-(4-fluoropyrazolo[1,5-a]pyridin-2-yl)-1,4,6,7-tetrahydro-5H-imidazo[4,5-c]pyridin-5-yl)(2-(pyridin-2-yl)oxazol-5-yl)methanone] the value was > 5 µM.
On the same count and under the same terms, for `Cc1cc(C(=O)N2CCc3[nH]cnc3[C@H]2c2cc3c(F)cccn3n2)n(C)n1` [Example 2390, (S)-(1,3-dimethyl-1H-pyrazol-5-yl)(4-(4-fluoropyrazolo[1,5-a]pyridin-2-yl)-6,7-dihydro-1H-imidazo[4,5-c]pyridin-5(4H)-yl)methanone] the value was 1 to 5 µM; for `CC(F)(F)c1nnc(N2CCc3[nH]cnc3[C@@H]2c2cc3c(C(F)F)cccn3n2)o1` [Example 2202, (R)-2-(1,1-difluoroethyl)-5-(4-(4-(difluoromethyl)pyrazolo[1,5-a]pyridin-2-yl)-1,4,6,7-tetrahydro-5H-imidazo[4,5-c]pyridin-5-yl)-1,3,4-oxadiazole], > 5 µM.
On to `Fc1ncccc1-c1nnc(N2CCc3[nH]cnc3[C@H]2c2cc3c(Cl)cccn3n2)o1` [Example 2350, (S)-2-(4-(4-chloropyrazolo[1,5-a]pyridin-2-yl)-1,4,6,7-tetrahydro-5H-imidazo[4,5-c]pyridin-5-yl)-5-(2-fluoropyridin-3-yl)-1,3,4-oxadiazole], for which the AC50 fell in the range of 0.5 to 1 µM.
As to `FC(F)c1cccn2nc([C@H]3c4nc[nH]c4CCN3c3cnccn3)cc12` [Example 1816, (R)-4-(4-(difluoromethyl)pyrazolo[1,5-a]pyridin-2-yl)-5-(pyrazin-2-yl)-4,5,6,7-tetrahydro-1H-imidazo[4,5-c]pyridine], the AC50 is > 5 µM.
With `Nc1cnc(N2CCc3[nH]cnc3[C@H]2c2cc3c(Cl)cccn3n2)nc1` [Example 1873, (S)-2-(4-(4-chloropyrazolo[1,5-a]pyridin-2-yl)-1,4,6,7-tetrahydro-5H-imidazo[4,5-c]pyridin-5-yl)pyrimidin-5-amine], the AC50 lay in the range of 0.5 to 1 µM.
As for `CC(C)c1cccn2nc([C@@H]3c4nc[nH]c4CCN3c3nnc(-c4ccncn4)o3)cc12` [Example 2180, (S)-2-(4-(4-isopropylpyrazolo[1,5-a]pyridin-2-yl)-1,4,6,7-tetrahydro-5H-imidazo[4,5-c]pyridin-5-yl)-5-(pyrimidin-4-yl)-1,3,4-oxadiazole], the AC50 was in the range of 0.5 to 1 µM.

The same experiment, now with this note: A375 cells expressing human R408W PAH; 24 hrs compound incubation; 13C-Tyrosine by LC-MS; average where tested multiple times; read-out: AC50.
With `Cc1cccc2cc([C@@H]3c4nc[nH]c4CCN3C(=O)c3oc(C(C)(C)O)nc3C(F)F)nn12` [Example 794, (S)-(4-(difluoromethyl)-2-(2-hydroxypropan-2-yl)oxazol-5-yl)(4-(7-methylpyrazolo[1,5-a]pyridin-2-yl)-6,7-dihydro-1H-imidazo[4,5-c]pyridin-5(4H)-yl)methanone], the AC50 was < 0.5 µM.
Take `CC(C)(O)c1nc(C(F)(F)F)c(C(=O)N2CCc3[nH]cnc3[C@@H]2c2cc3ccccn3n2)o1` [Example 629, (R)-(2-(2-hydroxypropan-2-yl)-4-(trifluoromethyl)oxazol-5-yl)(4-(pyrazolo[1,5-a]pyridin-2-yl)-6,7-dihydro-1H-imidazo[4,5-c]pyridin-5(4H)-yl)methanone]: the half-maximal activity concentration (AC50) was in the range of 1 to 5 µM.
Turning to `Cc1cccn2nc([C@H]3c4nc[nH]c4CCN3c3nnc(C(C)(C)C)o3)cc12` [Example 1798, (R)-2-(tert-butyl)-5-(4-(4-methylpyrazolo[1,5-a]pyridin-2-yl)-6,7-dihydro-1H-imidazo[4,5-c]pyridin-5(4H)-yl)-1,3,4-oxadiazole], the AC50 was > 5 µM.
Same read-out and setting: for `CC(C)(O)c1nc(Br)c(C(=O)N2CCc3[nH]cnc3[C@H]2c2cc3ccccn3n2)o1` [Example 676, (S)-(4-bromo-2-(2-hydroxypropan-2-yl)oxazol-5-yl)(4-(pyrazolo[1,5-a]pyridin-2-yl)-6,7-dihydro-1H-imidazo[4,5-c]pyridin-5(4H)-yl)methanone] the value was < 0.5 µM.
`O=C(c1nnc(-c2cnn(C(F)F)c2)o1)N1CCc2[nH]cnc2[C@H]1c1cc2cccc(C(F)F)n2n1` [Example 1440, (S)-(5-(1-(difluoromethyl)-1H-pyrazol-4-yl)-1,3,4-oxadiazol-2-yl)(4-(7-(difluoromethyl)pyrazolo[1,5-a]pyridin-2-yl)-6,7-dihydro-1H-imidazo[4,5-c]pyridin-5(4H)-yl)methanone]: the AC50 is 0.5 to 1 µM.
Regarding `Cc1cnn(C)c1-c1nnc(C(=O)N2CCc3[nH]cnc3[C@@H]2c2cc3c(C)cccn3n2)o1` [Example 927, (R)-(5-(1,4-dimethyl-1H-pyrazol-5-yl)-1,3,4-oxadiazol-2-yl)(4-(4-methylpyrazolo[1,5-a]pyridin-2-yl)-6,7-dihydro-1H-imidazo[4,5-c]pyridin-5(4H)-yl)methanone], the AC50 was > 5 µM.
Regarding `Cc1cnn(C)c1-c1nnc(C(=O)N2CCc3[nH]cnc3[C@H]2c2cc3cccc(C(F)F)n3n2)o1` [Example 1584, (S)-(4-(7-(difluoromethyl)pyrazolo[1,5-a]pyridin-2-yl)-6,7-dihydro-1H-imidazo[4,5-c]pyridin-5(4H)-yl)(5-(1,4-dimethyl-1H-pyrazol-5-yl)-1,3,4-oxadiazol-2-yl)methanone], the AC50 was 0.5 to 1 µM.
With `Cn1nc(C(F)F)cc1C(=O)N1CCc2[nH]cnc2[C@H]1c1cc2c(F)cccn2n1` [Example 864, (S)-(3-(difluoromethyl)-1-methyl-1H-pyrazol-5-yl)(4-(4-fluoropyrazolo[1,5-a]pyridin-2-yl)-6,7-dihydro-1H-imidazo[4,5-c]pyridin-5(4H)-yl)methanone], the half-maximal activity concentration (AC50) is < 0.5 µM.
Turning to `Cc1cccc(-c2nnc(C(=O)N3CCc4[nH]cnc4[C@@H]3c3cc4c(Cl)cccn4n3)o2)n1` [Example 1430, (R)-(4-(4-chloropyrazolo[1,5-a]pyridin-2-yl)-6,7-dihydro-1H-imidazo[4,5-c]pyridin-5(4H)-yl)(5-(6-methylpyridin-2-yl)-1,3,4-oxadiazol-2-yl)methanone], the concentration at half-maximal activity (AC50) was > 5 µM.

(Values after US20230365592A1 (Agios Pharmaceuticals, Inc., priority 2022, published 2023).)
